From patent EP1200406B1, “CYCLIC AMIDES AND IMIDES HAVING SELECTIVE ANTAGONIST ACTIVITY AT ALPHA-1D ADRENERGIC RECEPTOR” (RECORDATI INDUSTRIA CHIMICA E FARMACEUTICA S.p.a., priority 1999, dated 2001)

System: conscious rats with partial bladder-outlet obstruction
Experiment: Cystometry in conscious rats with infravesical outflow obstruction by partial urethral ligature
Format: in vivo, Female Sprague Dawley rats
Details: 0.3 mg/kg i.v.
Description: Effects on cystometric parameters in conscious rats with […] outflow obstruction by partial urethral ligature. Female Sprague Dawley rats of 225-275 g body weight [Crl: CD(SD)BR, from Charles River Italia, Calco, Como] were used. The animals were housed with free access to food and water and maintained on a forced 12 hour alternating light dark cycle at 22-24°C for at least one week, except during experiment performance. In order to obtain a partial obstruction of the urethra, the method previously reported by Malmgren (Malmgren A. et al., J. UroL 137, 1291-1294, 1987; Neurourol. […] Pharmacol. […] The rats were anaesthetised with intraperitoneal (i.p.) administration of 3 ml/kg of Equithensin solution (pentobarbital 1.215 g, chloral hydrate 5.312 g, magnesium sulphate 2.657 g, ethanol 12.5 ml, propylene glycol 49.5 ml, distilled water to 125 ml of final volume) and then the bladder and proximal urethra were exposed via an abdominal midline incision. A silk ligature was placed around the urethra and tied in the presence of an intraluminally placed indwelling polyethylene cannula with an outside diameter of 1.22 mm. After removing the polyethylene cannula, the abdominal wall was sutured and then antibiotic medication (penicillin G 200000 I.U./kg and streptomycin 260 mg/kg i.p.) was performed. After three weeks of obstruction the animals were prepared for cystometry. The animals, anesthetized as reported above, were placed in a supine position and a midline incision was made in the shaved and cleaned abdominal wall. The urinary bladder was exposed and gently freed from adhering tissues, emptied and then cannulated, via an incision at the dome, with a polyethylene cannula (0.58 mm inside diameter and 0.96 mm outside diameter), which was permanently sutured with silk thread. For intravenous bolus injection a similar polyethylene tubing filled with physiological saline containing sodium heparin (40 I.U./ml) was inserted into the jugular vein. The cannulae were exteriorised through a subcutaneous tunnel in the retroscapular area, where they were connected with a plastic adapter, in order to avoid the risk of removal by the animal. Two days after bladder catheter implantation, the animals, fasted overnight, were placed in Bollman's cages or in particular plastic cages which allowed some lateral and back and forth movement of the rats, allowing measurements of micturition volume (MV). After a stabilisation period of 20 minutes, the free tip of the bladder cannula was connected to a pressure transducer and to a peristaltic pump for a continuous infusion of warm saline solution (37° C), into the urinary bladder. In order to shorten the time-period of saline infusion necessary to provoke micturition in the obstructed rats, a filling rate of the bladder of 10 ml/h was chosen. During infusion of saline into the bladder, the intravesical pressure signal and urine volume micturated were continuously recorded on chart polygraph. […] BVC (in ml) was defined as the volume of saline infused into the bladder from the start of the infusion to micturition. […] MV (in ml), defined as the volume of expelled urine during each single micturition, was recorded by means of a force displacement transducer connected to the polygraph and measuring the urine collected in a small reservoir placed under the cage. Basal values of the parameters above reported were evaluated as the mean of the values obtained in two complete and reproducible cystometrograms before treatment (time 0). Then the animals were treated intravenously by bolus injection with the test compound under continuous infusion of saline into the bladder. The parameter changes after compound injection (first cystometrogram and those recorded approximately after 30 and 60 minutes) were compared with the values recorded before injection (basal values).

SMILES: O=C1CC2(CCCC2)CC(=O)N1CCN1CCN(c2cc(Cl)ccc2Cl)CC1 [Example 1, 8-{2-[4-(2,5-Dichlorophenyl)-1-piperazinyl]-ethyl}-8-azaspiro[4.5]decane-7,9-dione]
- BVC mean values, change: 20-30%
- changes in MP values: no significant changes
- BVC (bladder volume capacity), % changes vs basal values (30 minutes): 22%
- MP (micturition pressure), % changes vs basal values (30 minutes): -7%
- MV (micturition volume), % changes vs basal values (30 minutes): 42%
- NMC – A (non-micturition contractions, amplitude), % changes vs basal values (30 minutes): -33%
- NMC – F (non-micturition contractions, frequency), % changes vs basal values (30 minutes): -38%
- BVC (bladder volume capacity), % changes vs basal values (60 minutes): 30%
- MP (micturition pressure), % changes vs basal values (60 minutes): -6%
- MV (micturition volume), % changes vs basal values (60 minutes): 28%
- NMC – A (non-micturition contractions, amplitude), % changes vs basal values (60 minutes): -38%
- NMC – F (non-micturition contractions, frequency), % changes vs basal values (60 minutes): -23%
- BVC (bladder volume capacity), % changes vs basal values (First cystometrogram): 26%
- MP (micturition pressure), % changes vs basal values (First cystometrogram): -2%
- MV (micturition volume), % changes vs basal values (First cystometrogram): 35%
- NMC – A (non-micturition contractions, amplitude), % changes vs basal values (First cystometrogram): -35%
- NMC – F (non-micturition contractions, frequency), % changes vs basal values (First cystometrogram): -24%
- frequency and amplitude of the non-voiding contractions (immediately after the injections): rapid decrease
